# “Also recorded” adds a separate entry of the source. Read-outs that look alike come from different tables or passages of the source.
# Experiments:
# [1] = pharmacokinetic study, concentration in maternal plasma and embryo of mice; type: in vivo; details: oral intubation, single dose of 10 mg/kg, FIG. 8
# Procedure: FIG. 8 is a graph showing the concentration of compound AGN 191701 (Compound 1) in nanograms per ml, or nanograms per gram as indicated on the chart, in the plasma and embryo of mice at various times after oral intubation of a single dose of 10 mg/kg of the compound.
# gestating ICR mice = assay: in vivo teratology study in gestating ICR mice; set-up: species or system mouse; details: for teratogenicity (in words): conclusion from Table 2
# Procedure: The methodology of the study is described as follows: ICR mice (Ace Animals, Boyertown, Pa.) were used. Mature male and virgin female ICR mice were housed in environmentally controlled rooms and acclimatized to a 12 hour light/dark cycle (light cycle 6 A.M. to 6 P.M.) for 2 weeks prior to use. All animals were maintained on Purina Lab Chow and tap water ad libitum. A group of 3-4 females was caged with a single male of proven fertility for 4 hours. Presence of a vaginal plug immediately afterward was regarded as evidence of successful mating, and this day was designated as day 0 of gestation. […] All animals were killed by cervical dislocation under mild ether anesthesia on day 17 of gestation. Upon laparotomy, the fetuses were examined for external malformations and weighed; one-half of each litter was then fixed in 95% ethanol and processed for staining of the skeleton by the rapid, alizarin red-S dye method. These preparations were examined under a dissection microscope to screen for abnormalities in the axial and the appendicular skeleton. The other half of each litter was fixed in Bouin's solution and examined by freehand razor serial sectioning to screen for anomalies of the brain, face, and palate. Differences in dose-related incidence of malformations and resorptions were assessed by computing percentages of affected conceptuses among total implantation sites. The groups were compared statistically by a method based on Student's t-tests of arcs in square root transformed percentages. Values at 0.05 probability level were considered significant. The median effective dose was calculated by logarithmic curve fitting of the dose-response data.
# human sebocyte cultures = assay: 3H-thymidine incorporation assay in human sebocyte cultures; type: cell-based; details: FIG. 3, 8 days of treatment
# Procedure: An assay involving human sebocyte cultures measures the inhibition of ^3H-thymidine into cells, and thus measures inhibition of DNA synthesis and thus an anti-proliferative effect on sebocyte (i.e. a sebostatic effect). This assay is also considered a specific assay for effectiveness of a compound as a potential anti-acne drug. The test is conducted as follows. Face-lift or forehead reduction skins from cosmetic surgeries were used as sources of human sebaceous gland cells (sebocytes). Isolated sebocytes were plated in type 1 collagen coated-dishes in DMEM/F12 (1:1) medium supplemented with 8% fetal bovine serum, 2% human serum, 10 ng/ml epidermal growth factor, 1 nM cholera toxin, 1 μM hydrocortisone, and penicillin/streptomycin/amphotericin B. Secondary cultures were prepared by plating Dispase dissociated cells in collagen coated 24-well plates. […] DNA from the cells were extracted by thichoroacetic acid and perchloric acid, and assayed for radioactivity by scintillation counting and for content of DNA by the diphenylamine colorimetric method. The results were expressed as CPM/μg DNA, or as per cent of vehicle control which incorporated about 1,000-1,500 cpm/μg DNA.
# [2] = tested on: limb bud mesenchymal cells; assay: inhibition of chondrogenesis in high-density spot cultures of limb bud mesenchymal cells; type: cell-based, mouse; details: for IC50: Mus musculus
# Procedure: An in vitro bioassay which measures inhibition of chondrogenesis (bone formation) in chick embryo cells is considered a classic measure of teratogenecity. The assay is conducted as follows: High-density “spot” cultures of limb bud mesenchymal cells were used to compare the ability of various concentrations of test drugs to suppress chondrogenic differentiation as a bioassay. Forelimb buds of mouse embryos on day 12 of gestation (54±2 somites) were dissociated in a trypsin-EDTA solution, and the resultant single-cell suspension was plated as 20-μl spots (200,000 cells/spot) on plastic culture dishes. Retinoid concentrations ranging from 0.3 ng/ml to 3 μg/ml (1 nM-10 μM) were added to the culture medium (Eagle's MEM+10% fetal bovine serum, GIBCO) 24 hours after initial plating. Control cultures received only the vehicle (ethanol, concentration≦1% by vol); Retinoic acid was used as a positive control in another set of cultures. The cultures were terminated 96 hours after plating, at which time the medium was removed and the cells were fixed for 1 hour in 10% formalin containing 0.5% cetylpyridinium chloride. The cultures were rinsed in acetic acid and stained for 1 hour in 0.5% Alcian blue solution at pH 1.0, differentiated in 3% acetic acid, and then dehydrated in ethanol and scored for chondrogenesis under the microscope. An absence or reduction in the number of cartilage nodules in stained cultures as compared with control cultures was taken as a measure of suppression of chondrogenesis. The number of cartilage nodules stained in the whole spot, mean number of nodules, and standard deviations were calculated for four replicate cultures per treatment. The median concentration causing a 50% inhibition of chondrogenesis compared with controls (IC50) was calculated by logarithmic curve fitting of the dose-response data.
# chimeric RXRα receptor = molecular target: T1, chimeric RXRα receptor (Homo sapiens, UniProt P19793); assay: Cationic Liposome Mediated Transfection Assay (ERE-CAT reporter in HeLa cells), RXRα; type: cell-based; details: concentration giving 50% of maximum CAT activity of reference AGN 191440
# T1 construct: expressed in transfected cells; host or cells: HeLa cells
# T1 sequence (P19793 227-458 limits assumed): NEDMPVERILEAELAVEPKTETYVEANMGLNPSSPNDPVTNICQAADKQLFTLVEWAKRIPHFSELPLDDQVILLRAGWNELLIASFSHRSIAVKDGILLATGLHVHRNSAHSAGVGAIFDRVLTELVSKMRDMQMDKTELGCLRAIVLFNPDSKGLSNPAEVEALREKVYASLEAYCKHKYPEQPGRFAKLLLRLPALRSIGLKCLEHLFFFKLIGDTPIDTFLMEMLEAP
# chimeric RARβ receptor = molecular target: T2, chimeric RARβ receptor (Homo sapiens, UniProt P10826); assay: Cationic Liposome Mediated Transfection Assay (ERE-CAT reporter in HeLa cells), RARβ
# T2 sequence (P10826 183-417 limits assumed): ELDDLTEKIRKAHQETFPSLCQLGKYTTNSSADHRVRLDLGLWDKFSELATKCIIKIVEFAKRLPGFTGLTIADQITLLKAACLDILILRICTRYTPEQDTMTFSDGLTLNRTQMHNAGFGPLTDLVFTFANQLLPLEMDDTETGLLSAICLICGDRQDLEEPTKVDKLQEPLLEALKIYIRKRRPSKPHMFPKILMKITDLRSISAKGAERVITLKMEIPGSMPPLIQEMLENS
# chimeric RARγ receptor = molecular target: T3, chimeric RARγ receptor (Homo sapiens, UniProt P13631); assay: Cationic Liposome Mediated Transfection Assay (ERE-CAT reporter in HeLa cells), RARγ
# T3 sequence (P13631 185-419 limits assumed): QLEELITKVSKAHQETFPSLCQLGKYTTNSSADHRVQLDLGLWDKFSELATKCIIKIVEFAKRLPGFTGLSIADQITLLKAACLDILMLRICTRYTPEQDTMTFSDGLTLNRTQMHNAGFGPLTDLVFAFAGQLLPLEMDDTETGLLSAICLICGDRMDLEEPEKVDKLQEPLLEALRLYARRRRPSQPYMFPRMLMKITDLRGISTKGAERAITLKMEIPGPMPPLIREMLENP
# chimeric RARα receptor = molecular target: T4, chimeric RARα receptor (Homo sapiens, UniProt P10276); assay: Cationic Liposome Mediated Transfection Assay (ERE-CAT reporter in HeLa cells), RARα
# T4 sequence (P10276 183-417 limits assumed): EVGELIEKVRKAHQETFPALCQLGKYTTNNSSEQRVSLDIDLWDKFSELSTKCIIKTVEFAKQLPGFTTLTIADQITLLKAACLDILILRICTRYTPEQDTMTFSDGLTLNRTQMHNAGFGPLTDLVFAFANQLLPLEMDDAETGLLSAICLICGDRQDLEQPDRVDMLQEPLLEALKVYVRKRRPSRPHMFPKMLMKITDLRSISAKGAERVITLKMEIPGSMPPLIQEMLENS
# [3] = single oral dose 1 mg/kg on day 11 of gestation
# [4] = single oral dose 10 mg/kg on day 11 of gestation
# [5] = single oral dose 100 mg/kg on day 11 of gestation
# [6] = Table 3, cultures terminated 96 hours after plating, read-out: IC50, 50% inhibition of chondrogenesis
# [7] = single oral dose 0.01 mg/kg on day 11 of gestation
# [8] = single oral dose 0.1 mg/kg on day 11 of gestation
structure (smiles),measurement,setting,value
"C/C(=C\c1cc(C(=O)O)cs1)c1cc2c(cc1C)C(C)(C)CCC2(C)C [Compound 1, 2-[(E)-2-(5,6,7,8-Tetrahydro-3,5,5,8,8-pentamethylnaphthalen-2-yl)propen-1-yl]thiophene-4-carboxylic Acid]",presence in maternal plasma and embryo (in words),[1],present in substantial concentration in the maternal plasma and in the embryo
same,teratogenicity (in words),gestating ICR mice; listed as AGN 191701,practically not teratogenic; also recorded: very little teratogenic effect
same,# Litters Normal,gestating ICR mice; [3],1
same,% Cleft Palate,gestating ICR mice; [3],0%
same,% Limb Defects,gestating ICR mice; [3],0%
same,% Resorbed,gestating ICR mice; [3],18%
same,# Litters Normal,gestating ICR mice; [4],3
same,% Cleft Palate,gestating ICR mice; [4],0%
same,% Limb Defects,gestating ICR mice; [4],0%
same,% Resorbed,gestating ICR mice; [4],14%
same,# Litters Normal,gestating ICR mice; [5],2
same,% Cleft Palate,gestating ICR mice; [5],19%
same,% Limb Defects,gestating ICR mice; [5],22%
same,% Resorbed,gestating ICR mice; [5],2%
same,inhibition of 3H-thymidine incorporation in sebocytes (in words),human sebocyte cultures,effective retinoid
same,IC50,[2]; [6],19 µg/mL
same,IC50,"[2]; text b179, read-out: IC50, inhibition of chondrogenesis",19 µg/mL
same,times less teratogenic than Compound 7 in the chondrogenesis assay,"[2]; ratio of IC50 values, versus Compound 7",approximately 6.3×10^4 times
same,EC50,chimeric RXRα receptor,67 nM
same,EC50,chimeric RARβ receptor,3350 nM
same,EC50,chimeric RARγ receptor,1070 nM
C/C(=C\C=C\c1occc1C(=O)O)c1cc2c(cc1C)C(C)(C)CCC2(C)C [Compound 2],EC50,chimeric RXRα receptor,1060 nM
C/C(=C/C=C/c1occc1C(=O)O)c1cc2c(cc1C)C(C)(C)CCC2(C)C [Compound 3],EC50,chimeric RXRα receptor,1310 nM
C/C(=C\c1ccc(C(=O)O)o1)c1cc2c(cc1C)C(C)(C)CCC2(C)C [Compound 4],EC50,chimeric RARα receptor,> 10000 nM
same,EC50,chimeric RXRα receptor,516 nM
same,EC50,chimeric RARβ receptor,> 10000 nM
same,EC50,chimeric RARγ receptor,> 10000 nM
"C/C(=C\C=C\C1C[C@H]1C(=O)O)c1cc2c(cc1C)C(C)(C)CCC2(C)C (stereo partly drawn) [Compound 5, Cis-[2-[4-Methyl-4-(3,5,5,8,8,-pentamethyl-5,6,7,8-tetrahydronapthalen)-2-yl]-1E,3E-butadien-1-yl] 1-Cyclopropane Carboxylic Acid]",EC50,chimeric RXRα receptor,139 nM
"C/C(=C\c1ccc(C(=O)O)cc1)c1ccc2c(c1)C(C)(C)CCC2(C)C [Compound 7, reference compound]",teratogenicity (in words),gestating ICR mice,much more teratogenic than Compound 1
same,# Litters Normal,gestating ICR mice; [7],2
same,% Cleft Palate,gestating ICR mice; [7],29%
same,% Limb Defects,gestating ICR mice; [7],20%
same,% Resorbed,gestating ICR mice; [7],3%
same,# Litters Normal,gestating ICR mice; [8],0
same,% Cleft Palate,gestating ICR mice; [8],100%
same,% Limb Defects,gestating ICR mice; [8],100%
same,% Resorbed,gestating ICR mice; [8],30%
same,# Litters Normal,gestating ICR mice; [3],0
same,% Resorbed,gestating ICR mice; [3],100%
same,# Litters Normal,gestating ICR mice; [4],0
same,% Resorbed,gestating ICR mice; [4],100%
same,IC50,[2]; [6],0.003 µg/mL
same,IC50,"[2]; text b179, read-out: IC50, inhibition of chondrogenesis (unit inferred)",0.003 µg/mL
same,EC50,chimeric RXRα receptor,> 10000 nM
